Experimental findings from patent publication US20040220081A1, “Nanoparticulate bioactive agents” (Spherics, Inc., priority 2002, published 2004) are described below.

Data set [1] can be described thus: Electron microscopy of precipitated particles of other drugs. To be noted: 3% drug in dichloromethane precipitated in 100 vol. pentane, needles. It is filed as physicochemical. The source says: In other experiments, 3% of the drug carbamazepine in dichloromethane was precipitated in 100 vol. of pentane. By electron microscopy, the particles were predominantly needles, about 1 micron in diameter by 50 microns in length. A few 1 micron spherical particles were also observed. A similar experiment using the drug itraconazole produced generally spherical particles in the range of about 0.1 to 0.5 microns diameter, by electron microscopy.

A short description of data set [2]: in vivo. To be noted: rat.

As for `NC(=O)N1c2ccccc2C=Cc2ccccc21` [carbamazepine], in data set [1], the particle diameter entry is “about 1 micron” and the particle length is listed as ~50 microns. Compound `CC(=O)O[C@H]1C(=O)[C@@]2(C)[C@H]([C@H](OC(=O)c3ccccc3)[C@]3(O)C[C@H](OC(=O)[C@H](O)[C@@H](NC(=O)c4ccccc4)c4ccccc4)C(C)=C1C3(C)C)[C@]1(OC(C)=O)CO[C@@H]1C[C@@H]2O` [(e), paclitaxel] had a bioavailability in data set [2] of 0.7%.

As a reminder, the bioavailability is the share of a dose that reaches the circulation, judged against a reference dose that is usually intravenous.
